According to publication PMC4460250, “Systems Pharmacology Dissecting Holistic Medicine for Treatment of Complex Diseases: An Example Using Cardiocerebrovascular Diseases Treated by TCM” (Evidence-based Complementary and Alternative Medicine : eCAM, 2015):
Read-outs that look alike come from different tables or passages of the source.

Experiments:
[1] = in vivo
[2] = cited from earlier work

Structure (SMILES)	Class(High: HIA value ≥0.7; Low: HIA value < 0.7) [1]	HIA(Human Intestinal Absorption) ([2]; in vivo)	HIA(Human Intestinal Absorption) ([2]; human, PreHIA data set, value given as fraction)
COc1cc2c(cc1OC)CN(C(=O)[C@H](C)N[C@@H](CCc1ccccc1)C(=O)O)[C@H](C(=O)O)C2 [Moexipril_diacid]	Low (key: High: HIA value ≥0.7; Low: HIA value < 0.7)	0.05	
CC(Cc1ccc(O)cc1)NCC(O)c1cc(O)cc(O)c1 (stereo not shown) [Fenoterol]	Low (key: High: HIA value ≥0.7; Low: HIA value < 0.7)	0.6	
CC(C)(C)NC[C@H](O)c1cc(O)cc(O)c1 [Terbutaline(R)]	Low (key: High: HIA value ≥0.7; Low: HIA value < 0.7)	0.63	
ClC(Cl)Cl [Chloroform]	High (key: High: HIA value ≥0.7; Low: HIA value < 0.7)		
COc1ccccc1OCCNC[C@H](O)c1ccc(C)c(S(N)(=O)=O)c1 [Amosulalol(R)]	High (key: High: HIA value ≥0.7; Low: HIA value < 0.7)	1	
CN1C(=O)[C@@H](O)N=C(c2ccccc2)c2cc(Cl)ccc21 [Temazepam(R)]	High (key: High: HIA value ≥0.7; Low: HIA value < 0.7)		
O=C1Nc2ccc(Cl)cc2C(c2ccccc2)=N[C@H]1O [Oxazepam(S)]	High (key: High: HIA value ≥0.7; Low: HIA value < 0.7)		
O=C1Nc2ccc(Cl)cc2C(c2ccccc2)=N[C@@H]1O [Oxazepam(R)]	High (key: High: HIA value ≥0.7; Low: HIA value < 0.7)		
CCOc1ccc2c3c1O[C@H]1[C@@H](O)C=C[C@H]4[C@@H](C2)N(C)CC[C@@]341 [Ethylmorphine]	High (key: High: HIA value ≥0.7; Low: HIA value < 0.7)		
O=C(O)c1ccccc1O [Salicylic acid]	High (key: High: HIA value ≥0.7; Low: HIA value < 0.7)		
CC(C)NC[C@H](O)COc1ccc(COCCOC(C)C)cc1 [Bisoprolol(S)]	High (key: High: HIA value ≥0.7; Low: HIA value < 0.7)		
CCN(CC)CCNC(=O)c1cc(Cl)c(N)cc1OC [Metoclopramide]	High (key: High: HIA value ≥0.7; Low: HIA value < 0.7)		
Nc1cc(N2CCCCC2)nc(N)[n+]1[O-] [Minoxidil]	High (key: High: HIA value ≥0.7; Low: HIA value < 0.7)		
O=C1CN=C(c2ccccc2)c2cc(Cl)ccc2N1 [Nordazepam]	High (key: High: HIA value ≥0.7; Low: HIA value < 0.7)		
O=C(O)Cc1ccccc1Nc1c(Cl)cccc1Cl [Diclofenac]	High (key: High: HIA value ≥0.7; Low: HIA value < 0.7)		
Cc1nnc2n1-c1ccc(Cl)cc1C(c1ccccc1Cl)=NC2 [Triazolam]	High (key: High: HIA value ≥0.7; Low: HIA value < 0.7)		
NS(=O)(=O)c1cc2c(cc1Cl)NCNS2(=O)=O [Hydrochlorothiazide]	Low (key: High: HIA value ≥0.7; Low: HIA value < 0.7)		
CCCc1cc(=O)[nH]c(=S)[nH]1 [Propylthiouracil]	High (key: High: HIA value ≥0.7; Low: HIA value < 0.7)		
Cc1cc(NS(=O)(=O)c2ccc(N)cc2)no1 [Sulfamethoxazole]	High (key: High: HIA value ≥0.7; Low: HIA value < 0.7)		
C[C@]12C=CC(=O)C=C1CC[C@@H]1[C@@H]2[C@@H](O)C[C@@]2(C)[C@H]1CC[C@]2(O)C(=O)CO [Prednisolone]	High (key: High: HIA value ≥0.7; Low: HIA value < 0.7)		
C#CC1(O)CC[C@H]2[C@@H]3CCC4=CC(=O)CC[C@@H]4[C@H]3CC[C@@]21CC (stereo partly shown) [Norgestrel]	High (key: High: HIA value ≥0.7; Low: HIA value < 0.7)		

Structure (SMILES)	Class(High: HIA value ≥0.7; Low: HIA value < 0.7) [1]	HIA(Human Intestinal Absorption) ([2]; in vivo)	HIA(Human Intestinal Absorption) ([2]; human, PreHIA data set, value given as fraction)
C#C[C@]1(OC(C)=O)CC[C@H]2[C@@H]3CCC4=CC(=NO)CC[C@@H]4[C@H]3CC[C@@]21CC (mixture of isomers) [Norgestimate]		1	
O=C(O)c1cccnc1 [Nicotinic_acid]		0.88	
CC(=O)Nc1c(I)c(NC(C)=O)c(I)c(C(=O)O)c1I [Diatrizoate]		0.05	
C[C@](N)(Cc1ccc(O)c(O)c1)C(=O)O [Methyldopa]		0.41	
CCc1oc2ccccc2c1C(=O)c1cc(Br)c(O)c(Br)c1 [Benzbromarone]		0.73	
O=C1C(CC[S+]([O-])c2ccccc2)C(=O)N(c2ccccc2)N1c1ccccc1 (stereo not shown) [Sulfinpyrazone]		1	
Cc1cccc(C)c1NC(=O)NCCCNC(C)C [Recainam]		0.71	
COCC(=O)O[C@]1(CCN(C)CCCc2nc3ccccc3[nH]2)CCc2cc(F)ccc2[C@@H]1C(C)C [Mibefradil]		0.69	
CNCCc1ccccn1 [Betahistine]		1	
Cc1cc(NC(=O)C2=C(O)c3ccccc3S(=O)(=O)N2C)no1 [Isoxicam]		1	
CNC(=C[N+](=O)[O-])NCCSCc1ccc(CN(C)C)o1 [Ranitidine]		0.5	
[H]/N=C(\N/C(=N/[H])Nc1ccc(Cl)cc1)NC(C)C [Chlorguanide]		0.85	
CCC[C@@H]1C[C@@H](C(=O)N[C@@H]([C@H]2O[C@H](SC)[C@H](O)[C@@H](O)[C@H]2O)[C@@H](C)O)N(C)C1 [Lincomycin]		0.28	
Cc1ccsc1C(=CCCN1CCC[C@@H](C(=O)O)C1)c1sccc1C [Tiagabine]		0.9	
Cc1cnc(NC(=O)C2=C(O)c3ccccc3S(=O)(=O)N2C)s1 [Meloxicam]		0.9	
Cc1cc(CC(=O)O)n(C)c1C(=O)c1ccc(Cl)cc1 [Zomepirac]		1	
Nc1ccn([C@H]2CC[C@@H](CO)O2)c(=O)n1 [Zalcitabine]		0.85	
CN1CC[C@]23c4c5ccc(O)c4O[C@H]2[C@@H](O)C=C[C@H]3[C@H]1C5 [Morphine]	High (key: High: HIA value ≥0.7; Low: HIA value < 0.7)		
CN1C(=O)[C@H](O)N=C(c2ccccc2)c2cc(Cl)ccc21 [Temazepam(S)]	High (key: High: HIA value ≥0.7; Low: HIA value < 0.7)		
N[C@@H]1CON=C1O [Cycloserine]		0.73	
Nc1ccc(S(=O)(=O)c2ccc(N)cc2)cc1 [Dapsone]			0.9

Structure (SMILES)	Class(High: HIA value ≥0.7; Low: HIA value < 0.7) [1]	HIA(Human Intestinal Absorption) ([2]; in vivo)	HIA(Human Intestinal Absorption) ([2]; human, PreHIA data set, value given as fraction)
CC(C[N+](C)(C)C)OC(N)=O (stereo not shown) [Bethanechol]		0.05	
CO/N=C(\C(=O)N[C@@H]1C(=O)N2C(C(=O)O)=C(COC(C)=O)CS[C@H]12)c1csc(N)n1 [Cefotaxime]		0.05	
CC(C)(C(=O)c1cccnc1)c1cccnc1 [Metyrapone]		0.8	
CC(C)(C)NC(=O)[C@H]1CC[C@H]2[C@@H]3CC[C@H]4NC(=O)C=C[C@]4(C)[C@H]3CC[C@]12C [Finasteride]		1	
OCCOCCN1CCN(C2=Nc3ccccc3Sc3ccccc32)CC1 [Quetiapine]		0.73	
NNc1nncc2ccccc12 [Hydralazine]		1	
O=C1OC2(c3ccc(O)cc3Oc3cc(O)ccc32)c2ccccc21 [Fluorescein]		0.99	
CC(=O)Oc1ccccc1C(=O)O [Aspirin]		0.82	
CC(C)NC[C@@H](O)COc1ccc(COCCOC(C)C)cc1 [Bisoprolol(R)]	High (key: High: HIA value ≥0.7; Low: HIA value < 0.7)		
N#Cc1ccc(C(c2ccc(C#N)cc2)n2cncn2)cc1 [Letrozole]		1	
C#C[C@]1(O)CC[C@H]2[C@@H]3CCC4=CC(=O)CC[C@@H]4[C@H]3CC[C@@]21CC [Levonorgestrel]	High (key: High: HIA value ≥0.7; Low: HIA value < 0.7)		
CCN(CC)CCOC(=O)C(Cc1cccc2ccccc12)CC1CCCO1 (stereo not shown) [Nafronyl]	High (key: High: HIA value ≥0.7; Low: HIA value < 0.7)		
Cc1cnc(C(=O)NCCc2ccc(S(=O)(=O)NC(=O)NC3CCCCC3)cc2)cn1 [Glipizide]	High (key: High: HIA value ≥0.7; Low: HIA value < 0.7)		
O=NN(CCCl)C(=O)NCCCl [Carmustine]		1	
CN1C(=O)CN=C(c2ccccc2)c2cc(Cl)ccc21 [Diazepam]	High (key: High: HIA value ≥0.7; Low: HIA value < 0.7)		
COCC1=C(C(=O)OC(C)OC(=O)OC(C)C)N2C(=O)[C@@H](NC(=O)/C(=N\OC)c3csc(N)n3)[C@H]2SC1 (stereo partly shown) [Cefpodoxime_proxetil]		0.5	
CO/N=C(\C(=O)N[C@@H]1C(=O)N2C(C(=O)O)=CCS[C@H]12)c1csc(N)n1 [Ceftizoxime]		0.72	
[H]/N=C(\N/C(=N/[H])Nc1ccc(Cl)cc1)NC(C)C [Proguanil]		0.8	
CN1C(C(=O)Nc2ccccn2)=C(O)c2ccccc2S1(=O)=O [Piroxicam]		1	
CC(C)C(=O)Nc1ccc([N+](=O)[O-])c(C(F)(F)F)c1 [Flutamide]		0.9	
c1ccc2[nH]c(-c3cscn3)nc2c1 [Thiabendazole]		0.9	
